Results published in ChEMBL document CHEMBL1151921 (Bioorg Med Chem, 2009).

Key:
D(2) dopamine receptor = D(2) dopamine receptor (Rattus norvegicus, UniProt P61169); assay: Displacement of [3H]spiperone from rat dopamine D2L receptor expressed in HEK293 cells; type: cell-based
D(3) dopamine receptor = D(3) dopamine receptor (Rattus norvegicus, UniProt P19020); assay: biochemical
[1] = molecular target: D(2) dopamine receptor (Homo sapiens) (UniProt P14416); assay: Activity at human dopamine D2L receptor expressed in CHO cells assessed as stimulation of [35S]GTPgammaS binding relative to dopamine; type: functional, cell-based
Chain of D(2) dopamine receptor (Homo sapiens) (P14416 whole entry): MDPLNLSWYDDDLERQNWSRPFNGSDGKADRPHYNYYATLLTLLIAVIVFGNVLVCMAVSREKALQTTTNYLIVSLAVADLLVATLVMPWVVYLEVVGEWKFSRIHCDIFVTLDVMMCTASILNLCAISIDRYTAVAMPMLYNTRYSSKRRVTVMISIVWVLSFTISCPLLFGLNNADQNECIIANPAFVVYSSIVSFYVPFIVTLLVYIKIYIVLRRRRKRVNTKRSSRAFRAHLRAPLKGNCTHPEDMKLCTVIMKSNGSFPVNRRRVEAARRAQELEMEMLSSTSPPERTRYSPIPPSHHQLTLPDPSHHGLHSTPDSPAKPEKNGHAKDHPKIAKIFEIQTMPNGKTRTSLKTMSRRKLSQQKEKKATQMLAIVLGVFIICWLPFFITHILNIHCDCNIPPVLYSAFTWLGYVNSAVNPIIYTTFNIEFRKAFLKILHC

Chain of D(2) dopamine receptor (P61169 whole entry): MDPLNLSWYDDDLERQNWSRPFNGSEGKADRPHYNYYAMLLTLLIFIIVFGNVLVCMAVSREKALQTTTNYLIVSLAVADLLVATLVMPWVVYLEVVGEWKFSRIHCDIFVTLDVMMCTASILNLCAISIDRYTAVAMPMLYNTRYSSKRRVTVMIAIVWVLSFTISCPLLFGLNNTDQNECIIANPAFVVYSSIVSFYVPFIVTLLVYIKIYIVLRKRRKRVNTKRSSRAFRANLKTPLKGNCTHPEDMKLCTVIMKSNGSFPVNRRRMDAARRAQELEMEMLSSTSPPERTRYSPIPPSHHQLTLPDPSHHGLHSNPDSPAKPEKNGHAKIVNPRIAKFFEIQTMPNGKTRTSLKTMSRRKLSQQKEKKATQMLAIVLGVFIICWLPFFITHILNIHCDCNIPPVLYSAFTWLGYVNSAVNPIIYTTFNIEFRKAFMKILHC
Chain of D(3) dopamine receptor (P19020 whole entry): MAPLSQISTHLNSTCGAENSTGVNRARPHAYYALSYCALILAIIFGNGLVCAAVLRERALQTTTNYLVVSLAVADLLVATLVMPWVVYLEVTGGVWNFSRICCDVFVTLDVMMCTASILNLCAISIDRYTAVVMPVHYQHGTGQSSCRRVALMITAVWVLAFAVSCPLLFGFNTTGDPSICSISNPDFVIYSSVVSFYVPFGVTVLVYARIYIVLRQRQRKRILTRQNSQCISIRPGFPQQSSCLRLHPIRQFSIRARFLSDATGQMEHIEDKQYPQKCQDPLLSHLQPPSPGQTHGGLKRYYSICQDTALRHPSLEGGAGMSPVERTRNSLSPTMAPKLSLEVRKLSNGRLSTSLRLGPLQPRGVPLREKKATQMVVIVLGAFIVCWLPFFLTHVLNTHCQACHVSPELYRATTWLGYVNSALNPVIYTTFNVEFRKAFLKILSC

Row | SMILES | Ki (D(2) dopamine receptor) [nM] | Ki (D(3) dopamine receptor) [nM] | Emax [1] [%]
1 | CCCN(CCN1CCN(C(=O)c2cc3ccccc3o2)CC1)C1CCc2c(O)cccc2C1 (stereo not drawn) | 132 | 5.23 | –
2 | CCCN(CCC)C1CCc2c(O)cccc2C1 (stereo not drawn) | – | – | 77.8
3 | CCCN(CCN1CCN(C(=O)c2ccc3[nH]ccc3c2)CC1)[C@H]1CCc2c(O)cccc2C1 | – | – | 80
4 | CCCN(CCN1CCN(C(=O)c2ccc3[nH]ccc3c2)CC1)C1CCc2ccc(O)cc2C1 (stereo not drawn) | 65.9 | – | –
5 | CCCN(CCN1CCN(c2ccc(-c3ccccc3)cc2)CC1)[C@H]1CCc2nc(N)sc2C1 | 264 | – | –
6 | CCCN(CCN1CCN(Cc2cc3ccccc3[nH]2)CC1)C1CCc2ccc(O)cc2C1 (stereo not drawn) | 100 | 4.82 | –
